One series addresses T1, μOR (Homo sapiens, UniProt P35372).
T1 construct: host or cells: CHO-K1
Nature of the series: cell-based. The class given is cell-based. To be noted: for Emax: read-out: μOR cAMP inhibition Emax ± SEM (%).

Series [1] concerns the target T2, κOR (Homo sapiens, UniProt P41145).
T2 construct: host or cells: CHO-K1
The experiment in a line: cell-based. It counts as cell-based. The settings on record: for Emax: read-out: κOR cAMP inhibition Emax ± SEM (%).

Another series has as its target HERG (Homo sapiens, UniProt Q12809). To be noted: data from reference 40; cited from earlier work.
Series [2] addresses T2, κOR. The experiment in a line: PathHunter β-arrestin-2 recruitment assay at the κOR. It counts as cell-based. To be noted: FIG. 6. The source says: Cell Lines and Cell Culture. To perform the HitHunter cAMP accumulation assay, Chinese hamster ovary cells (CHO-K1) stably expressing human μ-opioid receptor (OPRM1, catalog no. 95-0107C2, DiscoverX, Fremont, CA, USA), K-opioid receptor (OPRK1, catalog no. 95-0088C2, DiscoverX, Fremont, CA, USA), or 6-opioid receptor (OPRD1, catalog no. 95-0108C2, DiscoverX, Fremont, CA, USA) were maintained at 80% confluence in F-12 media supplemented with 10% fetal bovine serum, 1% penicillin/streptomycin/L-glutamine, and 800 μg/mL G418. To perform the PathHunter β-arrestin-2 recruitment assay, U2OS-human κ opioid receptor (κOR) cells stably expressing the κOR and β-arrestin-2 (RRID:CVCL_LA97, DiscoverX, Fremont, CA, USA) were maintained in McCoy's 5A media supplemented with 10% FBS and containing 500 μg/mL geneticin and 250 μg/mL hygromycin. All cells were grown 37° C. under 5% CO2 in a humidified incubator under sterile conditions in T75 flasks. During passaging, cells were dislodged from the flask following a 3-5 min incubation with 0.25% trypsin or non-enzymatic detachment reagent and subcultivated at ratios of 1:10 (CHO) and 3:10 (U2OS).
PathHunter β-arrestin-2 Recruitment Assay. The R-arrestin-2 recruitment assay was performed using U2OS-human (κOR) PathHunter R-arrestin-2 cells (DiscoverX) as previously described.^77
(In general: Activated receptors often draw arrestin, which recruitment assays turn into a signal.)

Another series relates to 320 non-olfactory GPCRs. Nature of the series: PRESTO-Tango GPCRome screen of βArr2 recruitment. The class given is cell-based. The settings on record: 3 μM, FIG. 7.
Where [3] appears, read: read-out: μOR cAMP inhibition EC50.
The mark [4] stands for this setting: read-out: κOR cAMP inhibition EC50.

One may read the EC50 as the concentration that produces a half-maximal response. One may read the Emax as the greatest response seen or fitted, relative to the assay's reference.

Like-named read-outs stand apart in the source and are kept apart here.

T1 sequence (P35372 whole entry): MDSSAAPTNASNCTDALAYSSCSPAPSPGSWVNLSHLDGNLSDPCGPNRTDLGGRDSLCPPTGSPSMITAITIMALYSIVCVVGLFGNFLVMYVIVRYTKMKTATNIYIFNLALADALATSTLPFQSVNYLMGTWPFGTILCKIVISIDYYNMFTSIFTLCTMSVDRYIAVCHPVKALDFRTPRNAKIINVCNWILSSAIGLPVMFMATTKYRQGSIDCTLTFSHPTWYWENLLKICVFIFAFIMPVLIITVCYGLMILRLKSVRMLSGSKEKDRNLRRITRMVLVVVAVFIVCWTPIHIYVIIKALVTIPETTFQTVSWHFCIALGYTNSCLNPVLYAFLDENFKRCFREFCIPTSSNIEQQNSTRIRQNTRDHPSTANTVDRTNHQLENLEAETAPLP
T2 sequence (P41145 whole entry): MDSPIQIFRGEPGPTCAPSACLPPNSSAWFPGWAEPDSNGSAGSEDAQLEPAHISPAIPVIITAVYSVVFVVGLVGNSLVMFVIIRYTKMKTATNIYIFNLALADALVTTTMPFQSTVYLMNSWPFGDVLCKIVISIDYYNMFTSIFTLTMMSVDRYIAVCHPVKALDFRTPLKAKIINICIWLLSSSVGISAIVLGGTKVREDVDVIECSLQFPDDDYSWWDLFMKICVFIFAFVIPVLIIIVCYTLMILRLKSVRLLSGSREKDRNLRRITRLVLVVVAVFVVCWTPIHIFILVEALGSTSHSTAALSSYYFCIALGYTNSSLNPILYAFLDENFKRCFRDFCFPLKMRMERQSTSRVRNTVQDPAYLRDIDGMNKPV
Sequence of HERG (Q12809 whole entry): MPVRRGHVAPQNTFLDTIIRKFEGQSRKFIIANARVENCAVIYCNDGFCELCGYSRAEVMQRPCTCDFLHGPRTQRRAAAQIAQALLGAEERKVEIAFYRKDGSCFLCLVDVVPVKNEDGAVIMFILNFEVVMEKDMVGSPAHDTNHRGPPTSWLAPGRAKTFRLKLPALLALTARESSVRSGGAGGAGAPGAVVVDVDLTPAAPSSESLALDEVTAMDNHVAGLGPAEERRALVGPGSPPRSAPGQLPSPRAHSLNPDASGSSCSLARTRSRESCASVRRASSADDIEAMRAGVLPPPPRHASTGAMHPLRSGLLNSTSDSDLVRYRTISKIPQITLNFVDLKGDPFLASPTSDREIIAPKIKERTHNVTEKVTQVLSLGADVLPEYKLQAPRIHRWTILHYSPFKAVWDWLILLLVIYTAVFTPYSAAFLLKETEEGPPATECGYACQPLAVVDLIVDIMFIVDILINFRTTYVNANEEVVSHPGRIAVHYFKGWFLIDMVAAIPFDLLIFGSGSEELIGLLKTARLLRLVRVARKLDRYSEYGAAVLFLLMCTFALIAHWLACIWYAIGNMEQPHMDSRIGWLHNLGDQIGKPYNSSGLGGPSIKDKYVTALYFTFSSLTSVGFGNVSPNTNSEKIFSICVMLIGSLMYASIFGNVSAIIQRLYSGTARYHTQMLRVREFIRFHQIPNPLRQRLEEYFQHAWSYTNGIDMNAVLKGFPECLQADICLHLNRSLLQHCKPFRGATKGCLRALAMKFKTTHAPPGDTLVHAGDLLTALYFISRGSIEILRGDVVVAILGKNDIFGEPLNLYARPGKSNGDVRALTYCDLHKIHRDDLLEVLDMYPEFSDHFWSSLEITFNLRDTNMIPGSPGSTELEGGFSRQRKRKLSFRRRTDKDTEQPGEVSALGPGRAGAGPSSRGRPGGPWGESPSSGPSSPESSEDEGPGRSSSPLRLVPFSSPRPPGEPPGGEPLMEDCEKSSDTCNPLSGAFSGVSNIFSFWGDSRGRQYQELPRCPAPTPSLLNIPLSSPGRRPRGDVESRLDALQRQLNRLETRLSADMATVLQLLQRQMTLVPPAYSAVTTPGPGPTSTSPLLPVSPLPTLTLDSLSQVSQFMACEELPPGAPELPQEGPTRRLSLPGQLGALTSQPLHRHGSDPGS

For the molecule 19-Hydroxyalstolucine [Compound 12], on μOR, the “agonist activity at the μOR” value is on record as “no agonist activity”, the “μOR cAMP inhibition Emax ± SEM (%)” value is reported as under 10% and the “μOR cAMP inhibition pEC50 ± SEM” value is recorded as “— (key: — = no activity observed at 10 μM.)”. Besides, the EC50 at μOR (setting [3]) is over 10000 nM. Besides, on κOR [1], the “agonist activity at the κOR” value is “no agonist activity”, the “κOR cAMP inhibition Emax ± SEM (%)” value was under 10% and the “κOR cAMP inhibition pEC50 ± SEM” value is listed as “— (key: — = no activity observed at 10 μM.)”. For the same molecule, on κOR [1] (setting [4]), the EC50 was over 10000 nM.
Turning to `C/C=C1/CN2CC[C@]34C(=C(C(=O)OC)[C@H]1C[C@H]23)Nc1ccccc14` [Compound 1, Akuammicine, reference compound], the “Ki (nM) at HERG” value on HERG is reported as “— (“—” indicates compound produced less than 50% displacement of radioligand in primary binding screen at 10 μM.)”. In addition, at κOR [1], the Emax amounted to 91 ± 7%.
With `C/C=C1/CN2CC[C@]34C(=C(C(=O)OC)[C@H]1C[C@H]23)Nc1ccc(-c2ccccc2)cc14` [Compound 4, 10-Phenylakuammicine], on μOR, the EC50 lay within 720 to 840 nM, the “μOR cAMP inhibition pEC50 ± SEM” value stood at 6.1 ± 0.1 and the Emax is 106 ± 6%. Moreover, the EC50 at μOR (setting [3]) was determined as 780 nM. In addition, at κOR [1], the “κOR cAMP inhibition pEC50 ± SEM” value was found to be 7.8 ± 0.1 and the Emax was determined as 101 ± 2%. For the same molecule, the EC50 at κOR [1] (setting [4]) worked out at 15 nM.
Consider `C/C=C1/CN2CC[C@]34C(=C(C(=O)OC)[C@H]1C[C@H]23)Nc1ccc(-c2ccoc2)cc14` [Compound 5, 10-(3-Furanyl)akuammicine], for which the “βArr2 recruitment compared with U50,488” value at κOR [2] was “significantly less recruitment of βArr2 than U50488 at concentrations <10 μM”. Besides, on μOR, the EC50 lay in the range of 720 to 840 nM, the “μOR cAMP inhibition pEC50 ± SEM” value was determined as 6.1 ± 0.2 and the Emax is 99 ± 12%. Also, the EC50 at μOR (setting [3]) stood at 720 nM. Besides, on κOR [1], the “fold increase in κOR potency relative to 1” value was > 1,300, the “κOR cAMP inhibition pEC50 ± SEM” value came out at 9.1 ± 0.1 and the maximum response (Emax) stood at 102 ± 2%. Also, the EC50 on κOR [1] (setting [4]) turned out to be 0.88 nM.
In the case of `C/C=C1/CN2CC[C@]34C(=C(C(=O)OC)[C@H]1C[C@H]23)Nc1ccc(-c2ccsc2)cc14` [Compound 6, 10-(3-Thienyl)akuammicine], the EC50 on μOR was 720 to 840 nM; at μOR (setting [3]), 840 nM; at κOR [1] (setting [4]), 7.7 nM. The “μOR cAMP inhibition pEC50 ± SEM” value at μOR is listed as 6.1 ± 0.1. For the same molecule, the Emax at μOR turned out to be 107 ± 3%; at κOR [1], 104 ± 3%. For the same molecule, the “κOR cAMP inhibition pEC50 ± SEM” value on κOR [1] was determined as 8.1 ± 0.1.
With `CC=C1CN2CCC34C(=C(C(=O)OC)C1CC23)Nc1ccc(C#N)cc14` (stereo not drawn) [Compound 7, 10-Cyanoakuammicine], on μOR, the EC50 was over 10000 nM, the “agonist activity at the μOR” value is “without activating the μOR” and the Emax was under 10%. For the same molecule, the EC50 on μOR (setting [3]) is over 10000 nM. Besides, on κOR [1], the midpoint of the response, the EC50, lay at 81 nM and the Emax turned out to be 102 ± 6%.
Consider `CC=C1CN2CCC34C(=C(C(=O)OC)C1CC23)Nc1ccc([N+](=O)[O-])cc14` (stereo not drawn) [Compound 8, 10-Nitroakuammicine], for which the “βArr recruitment against GPCRome” value in the series on 320 non-olfactory GPCRs is “induced recruitment of a number of non-opioid targets”. On μOR, the EC50 came out at 4000 nM and the Emax is under 10%. Moreover, on κOR [1], the EC50 stood at 160 nM, the “Selectivity index = μOR EC50/κOR EC50” value stood at 25 and the Emax was determined as 96 ± 5%.
Take `COC(=O)C1=C2Nc3ccccc3[C@@]23CCN2C[C@@](O)([C@@H](C)O)[C@@H]1C[C@H]23` [Compound 10, 19R,20R-Dihydroxyakuammicine]: the “agonist activity at the μOR” value at μOR was “no agonist activity”. Moreover, the “agonist activity at the κOR” value on κOR [1] is on record as “no agonist activity”.
For the molecule `CC[C@@H]1CN2CC[C@]34C(=C(C(=O)OC)[C@H]1C[C@H]23)Nc1ccccc14` [Compound 13, 19,20-dihydroakuammicine], on μOR, the “μOR cAMP inhibition Emax ± SEM (%)” value is under 10% and the “μOR cAMP inhibition pEC50 ± SEM” value was “— (key: — = no activity observed at 10 μM.)”. Moreover, on μOR (setting [3]), the EC50 was over 10000 nM. In addition, on κOR [1], the “κOR cAMP inhibition Emax ± SEM (%)” value amounted to 99 ± 9% and the “κOR cAMP inhibition pEC50 ± SEM” value came to 5.8 ± 0.1. Further, the EC50 on κOR [1] (setting [4]) turned out to be 1600 nM.
As to `C/C=C1/CN2CC[C@]34c5ccccc5NC3C(C(=O)OC)[C@H]1C[C@H]24` (stereo partly drawn) [Compound 14, 2,16-dihydroakuammicine], the EC50 at μOR, at μOR (setting [3]), on κOR [1] and on κOR [1] (setting [4]) was over 10000 nM each time. The Emax at μOR and at κOR [1] was under 10% each time. In addition, the “agonist activity at the κOR” value at κOR [1] is on record as “all κOR agonist activity is abolished or significantly diminished”.
Turning to `CCC1CN2CCC34c5ccccc5NC3C(C(=O)OC)C1CC24` (stereo not drawn) [Compound 15, 2,16,19,20-tetrahydroakuammicine], the EC50 on μOR, on μOR (setting [3]), at κOR [1] and on κOR [1] (setting [4]) was over 10000 nM each time. The maximal effect (Emax) at μOR and on κOR [1] was under 10% each time. For the same molecule, the “agonist activity at the κOR” value on κOR [1] is reported as “all κOR agonist activity is abolished or significantly diminished”.
For the molecule `C/C=C1/C[N+]2(C)CC[C@]34C(=C(C(=O)OC)[C@H]1C[C@@H]32)Nc1ccccc14` (stereo partly drawn) [Compound 16, N-4-Methylakuammicine], the Emax at μOR and on κOR [1] was under 10% throughout.
Take `C=CC[N+]12CCC34C(=C(C(=O)OC)C(CC31)C(=CC)C2)Nc1ccccc14` (stereo not drawn) [Compound 17, N-4-Allylakuammicine]: the EC50 on μOR, on μOR (setting [3]), on κOR [1] and on κOR [1] (setting [4]) was over 10000 nM throughout. Further, the Emax at μOR and on κOR [1] was under 10% each time.
Turning to `C/C=C1/C[N+]2(CCC)CC[C@]34C(=C(C(=O)OC)[C@H]1C[C@@H]32)Nc1ccccc14` (stereo partly drawn) [Compound 18, N-4-Propylakuammicine], the Emax at μOR and on κOR [1] was under 10% in each case.
As for `CC=C1C[N+]2(CC3CC3)CCC34C(=C(C(=O)OC)C1CC32)Nc1ccccc14` (stereo not drawn) [Compound 19, N-4-Cyclopropylmethylakuammicine], at μOR, the half-maximal effective concentration (EC50) is over 10000 nM and the Emax is under 10%. Moreover, the EC50 on μOR (setting [3]) is over 10000 nM. Moreover, at κOR [1], the midpoint of the response, the EC50, lay at 4700 nM; the “fold reduced κOR potency compared to 1” value was “about 4 fold”; the Emax came out at 113 ± 24%.
For `C/C=C1/C[N+]2(Cc3ccccc3)CC[C@]34C(=C(C(=O)OC)[C@H]1C[C@@H]32)Nc1ccccc14` (stereo partly drawn) [Compound 20, N-4-Benzylakuammicine], the “μOR cAMP inhibition pEC50 ± SEM” value on μOR came out at 5.6 ± 0.1. Moreover, the EC50 at μOR (setting [3]) was 2300 nM. Also, the values for the Emax on μOR and on κOR [1] were 112 ± 6% and under 10%, respectively.
For `C/C=C1/CN2CC[C@]34c5cc(Br)ccc5NC3C(C(=O)OC)[C@H]1C[C@H]24` (stereo partly drawn) [Compound 21, 10-Bromo-2,16-dihydroakuammicine], at κOR [1], the “κOR cAMP inhibition pEC50 ± SEM” value came to 7.3 ± 0.1 and the Emax stood at 100 ± 4%. Further, the EC50 at κOR [1] (setting [4]) is 47 nM.
As to `CC=C1CN2CCC34c5cc(I)ccc5NC3C(C(=O)OC)C1CC24` (stereo not drawn) [Compound 22, 10-Iodo-2,16-dihydroakuammicine], the EC50 was over 10000 nM on μOR, over 10000 nM at μOR (setting [3]) and 24 nM at κOR [1].
On to `CC=C1C[N+]2(C)CCC34C(=C(C(=O)OC)C1CC32)Nc1ccc(Br)cc14` (stereo not drawn) [Compound 23, 10-Bromo-N-4-methylakuammicine], for which the results for the EC50 at μOR, on μOR (setting [3]) and at κOR [1] were over 10000 nM, over 10000 nM and 940 nM, respectively. In addition, the results for the Emax at μOR and on κOR [1] were under 10% and 102 ± 7%, respectively.
As for `C=CC[N+]12CCC34C(=C(C(=O)OC)C(CC31)C(=CC)C2)Nc1ccc(Br)cc14` (stereo not drawn) [Compound 24, 10-Bromo-N-4-allylakuammicine], the EC50 was over 10000 nM at μOR, over 10000 nM at μOR (setting [3]) and 650 nM on κOR [1]. Moreover, the Emax at μOR is under 10%; at κOR [1], 100 ± 7%.
With `C/C=C1/C[N+]2(CC3CC3)CC[C@]34C(=C(C(=O)OC)[C@H]1C[C@@H]32)Nc1ccc(Br)cc14` (stereo partly drawn) [Compound 25, 10-Bromo-N-4-cyclopropylmethylakuammicine], the Emax was under 10% at μOR and 94 ± 5% on κOR [1]. Also, on κOR [1], the “κOR cAMP inhibition pEC50 ± SEM” value was 6.7 ± 0.1. In addition, the EC50 at κOR [1] (setting [4]) was 210 nM.
Turning to `CCC1CN2CCC34C(=C(C(=O)OC)C1CC23)Nc1ccc(Br)cc14` (stereo not drawn) [Compound 27, 10-Bromo-19,20-dihydroakuammicine], on μOR, the “μOR cAMP inhibition pEC50 ± SEM” value came to 6.0 ± 0.1 and the Emax came out at 107 ± 5%. In addition, the EC50 at μOR (setting [3]) is 1100 nM. Further, at κOR [1], the “Selectivity index = μOR EC50/κOR EC50” value was found to be 35, the “κOR cAMP inhibition pEC50 ± SEM” value is 7.5 ± 0.1 and the Emax amounted to 100 ± 5%. Also, the EC50 at κOR [1] (setting [4]) is 31 nM.

These data come from patent US20250051332A1 (priority 2022, published 2025).
